The text below walks through data of US10316017B2, “COT modulators and methods of use thereof” (Gilead Sciences, Inc., priority 2015, dated 2019).

Test [1] relates to TNFα production in LPS-stimulated human monocytes. The test can be described thus: Cot Monocyte TNFα Cell Based Assay. To be noted: Homo sapiens, Monocyte, read-out: EC50 TNF. An outline of the steps:
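TNFα release quantified by two-antibody TR-FRET, normalised to unstimulated (0%) and LPS-stimulated (100%) wells. Cells got a 1 h compound exposure at 37° C in 0.5% DMSO before 4 h challenge with 50 pg/ml LPS, at 5,000 cells/well.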

In test [2] the target is T1, human Cot catalytic domain (30-397 amino acids) (Homo sapiens, UniProt P41279).
T1 construct: Purified recombinant human Cot catalytic domain (30-397 amino acids) was purchased from Cama Biosciences; purchased Cama Biosciences (so in the source)
The experiment in a line: High Throughput Cot Biochemical Assay (KinEASE TR-FRET). The following applies: read-out: IC50 HTRF. In short, it runs like this: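 TR-FRET (KinEASE) read-out: Eu-labelled phospho-specific antibody binds XL665-tagged STK3 peptide (1 μM) phosphorylated by 5 nM human Cot kinase domain (residues 30-397). Reaction at 400 μM ATP, pH 7.0 MOPS buffer with 10 mM MgOAc, 1 mM DTT and 0.1% DMSO.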
(Time-resolved FRET reads energy transfer from a long-lived donor to a nearby acceptor.)

Setting [3] is: TNFα in LPS-stimulated human monocytes.
The mark [4] stands for this setting: Cot KinEASE TR-FRET (HTRF) biochemical assay, 400 μM ATP.
The mark [5] stands for this setting: Cot biochemical HTRF (KinEASE TR-FRET) assay.
Where [6] appears, read: LPS-stimulated human monocytes, TNFα TR-FRET.
The mark [7] stands for this setting: Cot KinEASE TR-FRET, 400 μM ATP.

Where two headings read alike, the source gives them in different places.

T1 sequence (P41279 30-397): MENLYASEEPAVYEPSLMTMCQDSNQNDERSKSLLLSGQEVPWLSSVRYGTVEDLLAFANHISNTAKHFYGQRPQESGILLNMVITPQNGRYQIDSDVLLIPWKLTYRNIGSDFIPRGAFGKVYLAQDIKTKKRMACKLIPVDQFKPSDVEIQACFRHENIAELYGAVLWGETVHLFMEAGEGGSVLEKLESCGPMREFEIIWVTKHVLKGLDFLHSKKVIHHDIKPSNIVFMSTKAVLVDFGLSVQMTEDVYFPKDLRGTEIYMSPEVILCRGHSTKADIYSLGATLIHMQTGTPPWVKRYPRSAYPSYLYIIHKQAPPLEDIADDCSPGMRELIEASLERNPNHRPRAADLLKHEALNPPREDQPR

In the case of `[2H][C@](Nc1cc(Cl)c2ncc(C#N)c(N[C@H](CCC#N)c3ccccc3)c2c1)(c1ccc(Cl)cc1)c1cn(C2CC2)nn1` [Example 74, 8-chloro-6-(((S)-(4-chlorophenyl)(1-cyclopropyl-1H-1,2,3-triazol-4-yl)methyl-d)amino)-4-(((R)-3-cyano-1-phenylpropyl)amino) quinoline-3-carbonitrile], the 50% effective concentration (EC50) (commonly the concentration needed to bring the measured effect to its halfway point) in test [1] (setting [3]) turned out to be 30 nM. In addition, the IC50 (usually the concentration at which inhibition is half-maximal) in test [2] (setting [4]) was 3 nM.
On to `CC(C)(C)N1CCC(n2cc([C@@H](Nc3cc(Cl)c4ncc(C#N)c(Nc5cc(Cl)ccc5F)c4c3)c3ccc(Cl)cc3)nn2)CC1` [Example 652, (S)-6-(((1-(1-(tert-butyl)piperidin-4-yl)-1H-1,2,3-triazol-4-yl)(4-chlorophenyl)methyl)amino)-8-chloro-4-((5-chloro-2-fluorophenyl)amino)quinoline-3-carbonitrile], for which the EC50 in test [1] (setting [3]) is 7660 nM. Moreover, the IC50 in test [2] (setting [5]) amounted to 61 nM.
Turning to `CC(C)(C)CNc1c(C#N)cnc2c(C#N)cc(N[C@@H](c3cccc(C(N)=O)c3)c3cn(C4CC4)nn3)cc12` [Compound 59], the EC50 in test [1] (setting [3]) came to 612 nM. In addition, the IC50 in test [2] (setting [4]) stood at 1 nM.
Regarding `CN(C)C1CN(C(=O)c2cccc([C@H](Nc3cc(Cl)c4ncc(C#N)c(Nc5ccc(F)c(Cl)c5)c4c3)c3cn(C4CCN(C(C)(C)C)CC4)nn3)c2)C1` [Example 622, (S)-6-(((1-(1-(tert-butyl)piperidin-4-yl)-1H-1,2,3-triazol-4-yl)(3-(3-(dimethylamino)azetidine-1-carbonyl)phenyl)methyl)amino)-8-chloro-4-((3-chloro-4-fluorophenyl)amino)quinoline-3-carbonitrile], the EC50 in test [1] (setting [3]) is 851 nM. Further, the 50% inhibitory concentration (IC50) in test [2] (setting [5]) stood at 5 nM.
As for `[2H][C@](Nc1cc(-c2cn[nH]c2)c2ncc(C#N)c(NCC(C)(C)C)c2c1)(c1ccc(F)cc1)c1cn(C2CC2)nn1` [Example 168, (S)-6-(((1-cyclopropyl-1H-1,2,3-triazol-4-yl)(4-fluorophenyl)methyl-d)amino)-4-(neopentylamino)-8-(1H-pyrazol-4-yl)quinoline-3-carbonitrile], the EC50 in test [1] (setting [3]) came out at 9570 nM. Also, the IC50 in test [2] (setting [4]) amounted to 2070 nM.
Consider `N#Cc1cnc2c(Cl)cc(N[C@@H](c3ccc(Cl)cc3)c3c[nH]nn3)cc2c1Nc1cc(Cl)ccc1F` [Example 639, (S)-8-chloro-4-((5-chloro-2-fluorophenyl)amino)-6-(((4-chlorophenyl)(1H-1,2,3-triazol-4-yl)methyl)amino)quinoline-3-carbonitrile], for which, in test [1] (setting [3]), the EC50 was determined as 1710 nM. Further, the IC50 in test [2] (setting [5]) is 664 nM.
The corresponding values for `N#Cc1cnc2c(Cl)cc(N[C@@H](c3ccc(F)cc3)c3cn(C4COC4)nn3)cc2c1Nc1cnc(F)c(F)c1` [Example 511, (S)-8-chloro-4-((5,6-difluoropyridin-3-yl)amino)-6-(((4-fluorophenyl)(1-(oxetan-3-yl)-1H-1,2,3-triazol-4-yl)methyl)amino)quinoline-3-carbonitrile] are 701 nM and 17 nM.
The like results for `N#Cc1cnc2c(Cl)cc(N[C@@H](c3ccccc3)c3cn(Cc4ccccn4)nn3)cc2c1Nc1ccc(F)c(Cl)c1` [Example 729, (S)-8-chloro-4-((3-chloro-4-fluorophenyl)amino)-6-((phenyl (1-(pyridin-2-ylmethyl)-1H-1,2,3-triazol-4-yl)methyl)amino)quinoline-3-carbonitrile] were, in that order, 532 nM and 32 nM.
With `N#Cc1cnc2c(Cl)cc(N[C@@H](c3ccc(Cl)cc3)c3c[nH]nn3)cc2c1Nc1ccc(O)c(Cl)c1` [Example 614, (S)-8-chloro-4-((3-chloro-4-hydroxyphenyl)amino)-6-(((4-chlorophenyl)(1H-1,2,3-triazol-4-yl)methyl)amino)quinoline-3-carbonitrile], the concentration for a half-maximal effect (EC50) in test [1] (setting [3]) came to 1110 nM. Besides, the IC50 in test [2] (setting [5]) stood at 123 nM.
Regarding `CN(C)CCCn1cc([C@@H](Nc2cc(Cl)c3ncc(C#N)c(Nc4ccc(F)c(Cl)c4)c3c2)c2ccccc2)nn1` [Example 797, (S)-8-chloro-4-((3-chloro-4-fluorophenyl)amino)-6-(((1-(3-(dimethylamino)propyl)-1H-1,2,3-triazol-4-yl)(phenyl)methyl)amino) quinoline-3-carbonitrile], in test [1] (setting [3]), the EC50 turned out to be 107 nM. For the same compound, in test [2] (setting [5]), the IC50 stood at 3 nM.
As to `[2H][C@](Nc1cc(Cl)c2ncc(C#N)c(NCC(C)(C)C#N)c2c1)(c1ccc(F)cc1)c1cn(C2CC2)nn1` [Example 299, (S)-8-chloro-4-((2-cyano-2-methylpropyl)amino)-6-(((1-cyclopropyl-1H-1,2,3-triazol-4-yl)(4-fluorophenyl)methyl-d)amino)quinoline-3-carbonitrile], in test [1] (setting [3]), the EC50 was 309 nM. The IC50 in test [2] (setting [4]) came to 12 nM.
Take `CC(C)(C)N1CCC(n2cc([C@@H](Nc3cc(Cl)c4ncc(C#N)c(Nc5ccc(F)c(OC(F)(F)F)c5)c4c3)c3ccccc3)nn2)CC1` [Example 525, (S)-6-(((1-(1-(tert-butyl)piperidin-4-yl)-1H-1,2,3-triazol-4-yl)(phenyl)methyl)amino)-8-chloro-4-((4-fluoro-3-(trifluoromethoxy)phenyl)amino)quinoline-3-carbonitrile]: in test [1] (setting [3]), the EC50 was determined as 4260 nM. Besides, the IC50 in test [2] (setting [5]) was found to be 726 nM.
For the compound `Cc1c(C#N)cccc1[C@H](Nc1cc(Cl)c2ncc(C#N)c(NCC(C)(C)C)c2c1)c1cn(C(CF)CF)nn1` [Example 1102, (S)-8-chloro-6-(((3-cyano-2-methylphenyl)(1-(1,3-difluoropropan-2-yl)-1H-1,2,3-triazol-4-yl)methyl)amino)-4-(neopentylamino)quinoline-3-carbonitrile], the EC50 in test [1] (setting [6]) stood at 63 nM. For the same compound, the IC50 in test [2] (setting [7]) amounted to 8 nM.
The like results for `[2H][C@](Nc1cc(Cl)c2ncc(C#N)c(N[C@H](CCOC)c3ccccc3)c2c1)(c1ccc(F)cc1)c1cn(C2CC2)nn1` [Example 925, 8-chloro-6-(((1-cyclopropyl-1H-1,2,3-triazol-4-yl)(4-fluorophenyl)methyl-d)amino)-4-(((R)-3-methoxy-1-phenylpropyl)amino)quinoline-3-carbonitrile] were, in that order, 187 nM and 10 nM.
The like results for `CC[C@@H](Nc1c(C#N)cnc2c(Br)cc(N[C@@H](c3cccc(C(N)=O)c3)c3cn(C4CC4)nn3)cc12)c1ccccc1` [Example 944, 3-((S)-((8-bromo-3-cyano-4-(((R)-1-phenylpropyl)amino)quinolin-6-yl)amino)(1-cyc1opropyl-1H-1,2,3-triazol-4-yl)methyl)benzamide] were, in that order, 51 nM and 1 nM.
On to `N#Cc1cnc2c(Cl)cc(N[C@@H](c3cccc(-c4ncco4)c3)c3cn(C4COC4)nn3)cc2c1Nc1cnc(F)c(F)c1` [Example 499, (S)-8-chloro-4-((5,6-difluoropyridin-3-yl)amino)-6-(((3-(oxazol-2-yl)phenyl) (1-(oxetan-3-yl)-1H-1,2,3-triazol-4-yl)methyl)amino)quinoline-3-carbonitrile], for which, in test [1] (setting [3]), the EC50 was 985 nM. Moreover, the IC50 in test [2] (setting [5]) is 6 nM.
With `N#Cc1cnc2c(Cl)cc(N[C@@H](c3ccccc3)c3cn(C4CCCC4)nn3)cc2c1Nc1ccc(Cl)c(Cl)c1F` [Example 534, (S)-8-chloro-6-(((1-cyclopentyl-1H-1,2,3-triazol-4-yl)(phenyl)methyl)amino)-4-((3,4-dichloro-2-fluorophenyl)amino) quinoline-3-carbonitrile], the EC50 in test [1] (setting [3]) stood at 3150 nM. Besides, the IC50 in test [2] (setting [5]) turned out to be 57 nM.
Consider `Cc1c(-c2ccn(C)n2)cccc1[C@H](Nc1cc(C#N)c2ncc(C#N)c(NCC(C)(C)C)c2c1)c1cn(C2(C(F)(F)F)CC2)nn1` [Example 1143, (S)-6-(((2-methyl-3-(1-methyl-1H-pyrazol-3-yl)phenyl)(1-(1-(trifluoromethyl)cyclopropyl)-1H-1,2,3-triazol-4-yl)methyl)amino)-4-(neopentylamino)quinoline-3,8-dicarbonitrile], for which the EC50 in test [1] (setting [6]) came to 239 nM. For the same compound, in test [2] (setting [7]), the IC50 was 7 nM.
As for `[2H][C@](Nc1cc(Cl)c2ncc(C#N)c(NCC(C)(C)C)c2c1)(c1ccc(F)cc1)c1cn(-c2cccnc2)nn1` [Example 335, (S)-8-chloro-6-(((4-fluorophenyl)(1-(pyridin-3-yl)-1H-1,2,3-triazol-4-yl)methyl-d)amino)-4-(neopentylamino)quinoline-3-carbonitrile], in test [1] (setting [3]), the EC50 turned out to be 204 nM. For the same compound, the IC50 in test [2] (setting [4]) is 40 nM.
In the case of `[2H][C@](Nc1cc(Cl)c2ncc(C#N)c(Nc3c(F)ccc(Cl)c3F)c2c1)(c1cccc(C#N)c1)c1cn(C2CC2)nn1` [Example 275, (S)-8-chloro-4-((3-chloro-2,6-difluorophenyl)amino)-6-(((3-cyanophenyl)(1-cyclopropyl-1H-1,2,3-triazol-4-yl)methyl-d)amino)quinoline-3-carbonitrile], in test [1] (setting [3]), the EC50 was found to be 246 nM. Also, the IC50 in test [2] (setting [4]) amounted to 23 nM.
As for `N#Cc1cnc2c(Cl)cc(N[C@@H](c3ccc(F)cc3)c3c[nH]nn3)cc2c1NCc1cscn1` [Example 401, (S)-8-chloro-6-(((4-fluorophenyl)(1H-1,2,3-triazol-4-yl)methyl)amino)-4-((thiazol-4-ylmethyl)amino)quinoline-3-carbonitrile], the EC50 in test [1] (setting [3]) came out at 4790 nM. Also, the IC50 in test [2] (setting [4]) stood at 758 nM.
